From patent US9730940B2, “Purine inhibitors of human phosphatidylinositol 3-kinase delta” (priority 2012, dated 2017)

Target: PI3K-alpha (Homo sapiens (Human), UniProt P42336)
Assay: HTRF PI3K biochemical assay, alpha isoform
Details: ratio PI3K-alpha IC50 value/PI3K-delta IC50 value

Chain of PI3K-alpha (P42336 whole entry, looked up, canonical isoform): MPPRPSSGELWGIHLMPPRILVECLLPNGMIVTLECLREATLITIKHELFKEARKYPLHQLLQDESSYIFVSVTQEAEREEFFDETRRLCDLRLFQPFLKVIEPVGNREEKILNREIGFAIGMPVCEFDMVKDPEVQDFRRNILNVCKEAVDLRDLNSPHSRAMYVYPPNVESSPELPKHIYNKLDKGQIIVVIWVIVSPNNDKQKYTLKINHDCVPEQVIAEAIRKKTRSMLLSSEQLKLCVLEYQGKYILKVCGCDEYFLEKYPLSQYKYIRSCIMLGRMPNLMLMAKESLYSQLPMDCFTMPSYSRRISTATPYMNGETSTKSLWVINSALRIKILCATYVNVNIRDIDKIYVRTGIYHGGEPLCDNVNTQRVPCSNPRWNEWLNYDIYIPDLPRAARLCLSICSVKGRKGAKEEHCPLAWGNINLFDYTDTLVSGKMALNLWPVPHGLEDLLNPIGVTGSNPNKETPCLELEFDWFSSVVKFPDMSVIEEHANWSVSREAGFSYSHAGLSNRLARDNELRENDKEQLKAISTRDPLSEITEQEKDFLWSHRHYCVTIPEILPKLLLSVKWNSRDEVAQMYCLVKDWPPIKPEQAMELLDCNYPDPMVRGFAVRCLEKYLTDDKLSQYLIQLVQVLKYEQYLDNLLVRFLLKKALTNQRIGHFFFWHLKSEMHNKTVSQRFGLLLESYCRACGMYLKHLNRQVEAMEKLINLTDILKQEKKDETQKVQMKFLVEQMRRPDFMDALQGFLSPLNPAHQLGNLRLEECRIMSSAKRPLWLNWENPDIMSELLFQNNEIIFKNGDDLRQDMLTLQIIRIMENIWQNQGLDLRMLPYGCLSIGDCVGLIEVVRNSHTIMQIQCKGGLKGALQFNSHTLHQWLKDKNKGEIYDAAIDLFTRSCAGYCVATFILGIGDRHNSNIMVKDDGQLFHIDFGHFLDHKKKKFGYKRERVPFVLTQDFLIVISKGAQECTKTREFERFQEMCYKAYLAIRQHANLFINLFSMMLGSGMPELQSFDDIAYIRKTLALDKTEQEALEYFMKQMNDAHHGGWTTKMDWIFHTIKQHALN
Chain of PI3K-alpha (P27986 whole entry partner, looked up, canonical isoform): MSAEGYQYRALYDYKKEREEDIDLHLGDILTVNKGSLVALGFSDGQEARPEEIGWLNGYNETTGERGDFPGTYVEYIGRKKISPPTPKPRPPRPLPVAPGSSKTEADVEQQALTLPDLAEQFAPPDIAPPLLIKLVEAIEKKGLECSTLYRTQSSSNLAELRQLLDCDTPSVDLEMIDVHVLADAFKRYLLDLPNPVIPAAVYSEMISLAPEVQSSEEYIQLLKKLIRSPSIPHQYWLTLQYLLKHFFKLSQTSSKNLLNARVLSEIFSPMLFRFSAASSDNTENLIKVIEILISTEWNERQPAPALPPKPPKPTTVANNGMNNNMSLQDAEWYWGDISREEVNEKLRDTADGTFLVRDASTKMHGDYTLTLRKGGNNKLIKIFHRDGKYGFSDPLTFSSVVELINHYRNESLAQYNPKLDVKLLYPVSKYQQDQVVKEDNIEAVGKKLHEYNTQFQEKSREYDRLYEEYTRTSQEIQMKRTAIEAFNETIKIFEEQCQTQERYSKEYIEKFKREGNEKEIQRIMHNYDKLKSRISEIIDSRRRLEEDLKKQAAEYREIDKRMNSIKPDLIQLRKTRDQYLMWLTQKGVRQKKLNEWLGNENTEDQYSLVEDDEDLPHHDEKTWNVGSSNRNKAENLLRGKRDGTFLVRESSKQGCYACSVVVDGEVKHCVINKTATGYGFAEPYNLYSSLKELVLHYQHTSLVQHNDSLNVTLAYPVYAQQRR

Compound | Relative Selectivity versus PI3Kalpha
CCn1ncc(-c2nc3c(O[C@H]4CCN(C(=O)c5ccncc5)C4)ncnc3n2C)c1C [Compound 2-64, 8-(1-ethyl-5-methyl-1H-pyrazol-4-yl)-9-methyl-6-{[(3S)-1-(pyridin-4-ylcarbonyl)pyrrolidin-3-yl]oxy}-9H-purine] | >10
CCn1ncc(-c2nc3c(O[C@H]4CCN(C(=O)c5cnoc5C)C4)ncnc3n2C)c1C [Compound 2-65, 8-(1-ethyl-5-methyl-1H-pyrazol-4-yl)-9-methyl-6-({(3S)-1-[(5-methylisoxazol-4-yl)carbonyl]pyrrolidin-3-yl}oxy)-9H-purine] | >10
CCn1ncc(-c2nc3c(O[C@H]4CCN(C(=O)c5ccccn5)C4)ncnc3n2C)c1C [Compound 2-66, 8-(1-ethyl-5-methyl-1H-pyrazol-4-yl)-9-methyl-6-{[(3S)-1-(pyridin-2-ylcarbonyl)pyirolidin-3-yl]oxy}-9H-purine] | >10
CCn1ncc(-c2nc3c(O[C@H]4CCN(C(=O)c5cccn5C)C4)ncnc3n2C)c1C [Compound 2-67, 8-(1-ethyl-5-methyl-1H-pyrazol-4-yl)-9-methyl-6-({(3S)-1-[(1-methyl-1H-pyrrol-2-yl)carbonyl]pyrrolidin-3-yl}oxy)-9H-purine] | >10
CCc1oncc1C(=O)N1CC[C@H](Oc2ncnc3c2nc(-c2cnn(CC)c2C)n3C)C1 [Compound 2-68, 6-({(3S)-1-[(5-ethylisoxazol-4-yl)carbonyl]pyrrolidin-3-yl}oxy)-8-(1-ethyl-5-methyl-1H-pyrazol-4-yl)-9-methyl-9H-purine] | >10
CCn1ncc(-c2nc3c(O[C@H]4CCN(C(=O)c5oncc5C)C4)ncnc3n2C)c1C [Compound 2-69, 8-(1-ethyl-5-methyl-1H-pyrazol-4-yl)-9-methyl-6-({(3S)-1-[(4-methylisoxazol-5-yl)carbonyl]pyrrolidin-3-yl}oxy)-9H-purine] | >10
CCn1ncc(-c2nc3c(O[C@H]4CCN(C(=O)c5ocnc5C)C4)ncnc3n2C)c1C [Compound 2-71, 8-(1-ethyl-5-methyl-1H-pyrazol-4-yl)-9-methyl-6-({(3S)-1-[(4-methyl-1,3-oxazol-5-yl)carbonyl]pyrrolidin-3-yl}oxy)-9H-purine] | >10
CCn1ncc(-c2nc3c(O[C@H]4CCN(C(=O)c5cn[nH]c5)C4)ncnc3n2C)c1C [Compound 2-72, 8-(1-ethyl-5-methyl-1H-pyrazol-4-yl)-9-methyl-6-{[(3S)-1-(1H-pyrazol-4-ylcarbonyl)pyrrolidin-3-yl]oxy}-9H-purine] | 9
CCn1ncc(-c2nc3c(O[C@H]4CCN(C(=O)c5cncn5C)C4)ncnc3n2C)c1C [Compound 2-73] | >10
CCn1ncc(-c2nc3c(O[C@H]4CCN(C(=O)c5cc(C)[nH]n5)C4)ncnc3n2C)c1C [Compound 2-75, 8-(1-ethyl-5-methyl-1H-pyrazol-4-yl)-9-methyl-6-({(3S)-1-[(5-methyl-1H-pyrazol-3-yl)carbonyl]pyrrolidin-3-yl}oxy)-9H-purine] | 5
CCn1ncc(-c2nc3c(O[C@H]4CCN(C(=O)C5CC(=O)N(C(C)C)C5)C4)ncnc3n2C)c1C (stereo partly drawn) [Compound 2-77, 4-{[(3S)-3-{[8-(1-ethyl-5-methyl-1H-pyrazol-4-yl)-9-methyl-9H-purin-6-yl]oxy}pyrrolidin-1-yl]carbonyl}-1-(1-methylethyl)pyrrolidin-2-one] | >10
CCn1ncc(-c2nc3c(O[C@H]4CCN(C(=O)c5cc(C)n(C)c5C)C4)ncnc3n2C)c1C [Compound 2-79, 8-(1-ethyl-5-methyl-1H-pyrazol-4-yl)-9-methyl-6-({(3S)-1-[(1,2,5-trimethyl-1H-pyrrol-3-yl)carbonyl]pyrrolidin-3-yl}oxy)-9H-purine] | >10
CCn1ncc(-c2nc3c(O[C@H]4CCN(C(=O)c5cnn(C)c5)C4)ncnc3n2C)c1C [Compound 2-80, 8-(1-ethyl-5-methyl-1H-pyrazol-4-yl)-9-methyl-6-({(3S)-1-[(1-methyl-1H-pyrazol-4-yl)carbonyl]pyrrolidin-3-yl}oxy)-9H-purine] | 6
CCn1ncc(-c2nc3c(O[C@H]4CCN(C(=O)c5nnc(C)o5)C4)ncnc3n2C)c1C [Compound 2-81, 8-(1-ethyl-5-methyl-1H-pyrazol-4-yl)-9-methyl-6-({(3S)-1-[(5-methyl-1,3,4-oxadiazol-2-yl)carbonyl]pyrrolidin-3-yl}oxy)-9H-purine] | 5
CCn1ncc(-c2nc3c(O[C@H]4CCN(C(=O)C5CCc6nnnn65)C4)ncnc3n2C)c1C (stereo partly drawn) [Compound 2-84, 6-{[(3S)-1-(6,7-dihydro-5H-pyrrolo[1,2-d]tetrazol-5-ylcarbonyl)pyrrolidin-3-yl]oxy}-8-(1-ethyl-5-methyl-1H-pyrazol-4-yl)-9-methyl-9H-purine (non-preferred name)] | >10
CCc1nc(C)c(C(=O)N2CC[C@H](Oc3ncnc4c3nc(-c3cnn(CC)c3C)n4C)C2)o1 [Compound 2-86, 6-({(3S)-1-[(2-ethyl-4-methyl-1,3-oxazol-5-yl)carbonyl]pyrrolidin-3-yl}oxy)-8-(1-ethyl-5-methyl-1H-pyrazol-4-yl)-9-methyl-9H-purine] | >10
CCn1ncc(-c2nc3c(O[C@H]4CCN(C(=O)c5cnoc5C(C)C)C4)ncnc3n2C)c1C [Compound 2-87, 8-(1-ethyl-5-methyl-1H-pyrazol-4-yl)-9-methyl-6-{[(3S)-1-{[5-(1-methylethyl)isoxazol-4-yl]carbonyl}pyrrolidin-3-yl]oxy}-9H-purine] | >10
CCn1ncc(-c2nc3c(O[C@H]4CCN(C(=O)c5cocn5)C4)ncnc3n2C)c1C [Compound 2-88, 8-(1-ethyl-5-methyl-1H-pyrazol-4-yl)-9-methyl-6-{[(3S)-1-(1,3-oxazol-4-ylcarbonyl)pyrrolidin-3-yl]oxy}-9H-purine] | >10
CCC(=O)N1CC[C@H](Oc2ncnc3c2nc(-c2cnc(OC)c(C)c2)n3CC)C1 [Compound 2-89, (S)-1-(3-((9-ethyl-8-(6-methoxy-5-methylpyridin-3-yl)-9H-purin-6-yl)oxy)pyrrolidin-1-yl)propan-1-one] | >10
CCn1ncc(-c2nc3c(O[C@H]4CCN(C(C)=O)C4)ncnc3n2C)c1C [Compound 2-90, (S)-1-(3-((8-(1-ethyl-5-methyl-1H-pyrazol-4-yl)-9-methyl-9H-purin-6-yl)oxy)pyrrolidin-1-yl)ethanone] | >10
CCn1ncc(-c2nc3c(O[C@H]4CCN(C(=O)C(C)C)C4)ncnc3n2C)c1C [Compound 2-91, (S)-1-(3-((8-(1-ethyl-5-methyl-1H-pyrazol-4-yl)-9-methyl-9H-purin-6-yl)oxy)pyrrolidin-1-yl)-2-methylpropan-1-one] | >10
CCn1ncc(-c2nc3c(O[C@H]4CCN(C(=O)C(C)(C)C)C4)ncnc3n2C)c1C [Compound 2-92, (S)-1-(3-((8-(1-ethyl-5-methyl-1H-pyrazol-4-yl)-9-methyl-9H-purin-6-yl)oxy)pyrrolidin-1-yl)-2,2-dimethylpropan-1-one] | >10
